From publication PMC5223195, “Novel long-chain compounds with both immunomodulatory and MenA inhibitory activities against Staphylococcus aureus and its biofilm” (Scientific Reports, 2017)
≈ marks a conversion by molar mass, not a printed value. Read-outs that look alike come from different tables or passages of the source.

Key:
MRSA USA700 = test: MIC against MRSA USA700; type: cell-based, Staphylococcus aureus; details: for MIC: Staphylococcus aureus, read-out: MIC, Staphylococcus aureus isolate USA700
Protocol: (§1) 96-well plates were seeded with 5 × 10^5 CFU/mL in a volume of 100 μL of tryptic soy broth (TSB) per well for Staphylococcus aureus assays. Compounds were dissolved in DMSO and serially diluted as 1:2 dilutions to give the final concentration ranging from 0.25 to 128 μg/mL per well. […] Plates were incubated at 37 °C for 18–20 hours and MIC was determined by reading OD625. For M.avium and M.abscessus, 7H9 broth media was used for determination of MICs. The final concentration was 5 × 10^5 CFU/mL in each well. The plate was incubated at 37 °C for 7–8 days and MICs were determined using a Tecan microplate reader (OD625) and resazurin reduction assay.

MRSA USA400 = test: MIC against MRSA USA400; type: cell-based, Staphylococcus aureus; details: Staphylococcus aureus; TSB, 37 °C, 18–20 hours; read-out: MIC, Staphylococcus aureus isolate USA400
Protocol: as §1

[1] = tested on: Methicillin susceptible Staphylococcus aureus; test: MIC against MSSA; type: cell-based; details: MSSA
Protocol: as §1

Pseudomonas aeruginosa = test: MIC against Pseudomonas aeruginosa; type: cell-based; details: read-out: MIC, PA
MRSA USA200 = test: MIC against MRSA USA200; type: cell-based, Staphylococcus aureus; details: TSB, 37 °C, 18–20 hours; for MIC: Staphylococcus aureus, read-out: MIC, Staphylococcus aureus isolate USA200
Protocol: as §1

MRSA USA100 = test: MIC against MRSA USA100; type: cell-based, Staphylococcus aureus; details: Staphylococcus aureus, read-out: MIC, Staphylococcus aureus isolate USA100
Protocol: as §1

Enterococcus faecalis = test: MIC against Enterococcus faecalis; type: cell-based; details: read-out: MIC, EF
MRSA USA300 = test: MIC against MRSA USA300; type: cell-based, Staphylococcus aureus; details: Staphylococcus aureus; TSB, 37 °C, 18–20 hours; read-out: MIC, Staphylococcus aureus isolate USA300
Protocol: as §1

MRSA USA500 = test: MIC against MRSA USA500; type: cell-based, Staphylococcus aureus; details: Staphylococcus aureus; TSB, 37 °C, 18–20 hours; read-out: MIC, Staphylococcus aureus isolate USA500
Protocol: as §1

MRSA USA800 = test: MIC against MRSA USA800; type: cell-based, Staphylococcus aureus; details: Staphylococcus aureus; TSB, 37 °C, 18–20 hours; read-out: MIC, Staphylococcus aureus isolate USA800
Protocol: as §1

Mycobacterium avium = test: MIC against Mycobacterium avium; type: cell-based; details: 7H9 broth, 7–8 days
Protocol: as §1

Mycobacterium abscessus = test: MIC against Mycobacterium abscessus; type: cell-based; details: Mycobacteroides abscessus, 7H9 broth, 7–8 days
Protocol: as §1

Gram-positive bacteria = test: MIC against Gram-positive bacteria (summary); type: cell-based; details: range over all tested Gram-positive bacteria
Protocol: as §1

Row | SMILES | MIC (MRSA USA700) [µg/mL] | MIC (MRSA USA400) [µg/mL] | MIC (MRSA USA700; TSB, 37 °C, 18–20 hours) [µg/mL] | MIC [1] [µg/mL] | MIC (Pseudomonas aeruginosa) [µg/mL] | MIC (MRSA USA100; TSB, 37 °C, 18–20 hours) [µg/mL] | MIC (MRSA USA300) [µg/mL] | also measured
1 | COc1ccc2ccc(OCCCCCCCCN3CCC(F)CC3)cc2c1 [3i] | > 128 |  |  |  |  |  |  | 
2 | COc1ccc2ccc(OCCCCCCCCN3C(=O)OC[C@@H]3Cc3ccccc3)cc2c1 [3g] |  | > 128 | > 128 | > 128 | > 128 |  |  | 
3 | Fc1ccc(CCNCCCCCCCCOc2ccc3cc(Br)ccc3c2)cc1 [5a] |  | 8 (≈ 16.9 µM) | 4 (≈ 8.47 µM) |  |  | 16 (≈ 33.9 µM) | 4 (≈ 8.47 µM) | MIC (MRSA USA200): 4 µg/mL (≈ 8.47 µM); MIC (Enterococcus faecalis): 2 µg/mL (≈ 4.23 µM)
4 | COc1ccc2ccc(OCCCCCCCCN[C@@H]3CCOC3=O)cc2c1 [3h] |  | > 128 | > 128 | > 128 | > 128 |  |  | 
5 | c1cc2ccc(OCCCN3CCCCC3)cc2cc1OCCCN1CCCCC1 [7b] | > 128 |  |  |  |  |  |  | 
6 | COc1ccc2ccc(OC/C=C/COCCCN3CCCCC3)cc2c1 [4b] | 128 (≈ 346 µM) |  |  |  | > 128 |  |  | 
7 | COc1ccc2ccc(OC/C=C/COCCCNCCc3ccc(F)cc3)cc2c1 [4c] |  | 8 (≈ 18.9 µM) | 16 (≈ 37.8 µM) | 16 (≈ 37.8 µM) | > 64 | 8 (≈ 18.9 µM) | 8 (≈ 18.9 µM) | MIC (MRSA USA500): 16 µg/mL (≈ 37.8 µM); MIC (MRSA USA800): 16 µg/mL (≈ 37.8 µM); MIC (Mycobacterium avium): 8 µg/mL (≈ 18.9 µM)
8 | Fc1ccc(CCNCCCCCCCCOc2ccc3cc(Br)c(OCc4ccccc4)cc3c2)cc1 [6c] |  | > 128 | > 128 | > 128 |  | > 128 |  | MIC (MRSA USA500): > 128 µg/mL; MIC (MRSA USA800): > 128 µg/mL
9 | C=CCN(C)CCCOc1ccc2ccc(OCCCN(C)CC=C)cc2c1 [7a] |  |  |  |  |  |  |  | MIC, Staphylococcus aureus isolate USA200 (MRSA USA200): >128 µg/mL; MIC, Staphylococcus aureus isolate USA700 (MRSA USA700; TSB, 37 °C, 18–20 hours): 128 µg/mL (≈ 335 µM)
10 | COc1ccc2ccc(OCCCCCCCCn3c4ccccc4c4ccccc43)cc2c1 [3f] | > 128 |  |  |  |  |  |  | MIC (MRSA USA100): > 128 µg/mL
11 | COc1ccc2ccc(OCCCCCCCCNCCc3ccc(Cl)cc3)cc2c1 [3b] |  | 4 (≈ 9.09 µM) | 8 (≈ 18.2 µM) | 4 (≈ 9.09 µM) | > 64 | 6 (≈ 13.6 µM) | 6 (≈ 13.6 µM) | MIC (MRSA USA200): 2 µg/mL (≈ 4.55 µM); MIC (MRSA USA500): 8 µg/mL (≈ 18.2 µM); MIC (Mycobacterium abscessus): 12 µg/mL (≈ 27.3 µM); MIC (MRSA USA800): 6 µg/mL (≈ 13.6 µM); MIC (Enterococcus faecalis): 0.5 µg/mL (≈ 1.14 µM); MIC (Mycobacterium avium): 4 µg/mL (≈ 9.09 µM); MIC values against all Gram-positive bacteria (range) (Gram-positive bacteria): 0.5 to 16 µg/mL
12 | Brc1ccc(CCNCCCCCCCCOc2ccc3cc(Br)ccc3c2)cc1 [5c] |  | 16 (≈ 30 µM) | 32 (≈ 60 µM) |  |  | 32 (≈ 60 µM) | 32 (≈ 60 µM) | MIC (MRSA USA200): 8 µg/mL (≈ 15 µM); MIC (Enterococcus faecalis): 8 µg/mL (≈ 15 µM)
